Experimental data reported in the NIST ThermoML archive (doi:10.1021/je900596d).
Numbers after ± are expanded uncertainties.

Settings: 358.16 K, Fluid (supercritical or subcritical phases), Vibrating tube method

FC(F)=C(F)C(F)(F)F [hexafluoropropene]
mass density (6.7 kPa): 0.18 ± 0.03 kg/m3 | mass density (7.2 kPa): 0.21 ± 0.03 kg/m3 | mass density (7.5 kPa): 0.23 ± 0.03 kg/m3 | mass density (7.7 kPa): 0.26 ± 0.03 kg/m3 | mass density (8.5 kPa): 0.27 ± 0.03 kg/m3 | mass density (8.8 kPa): 0.31 ± 0.03 kg/m3 | mass density (9.2 kPa): 0.32 ± 0.03 kg/m3 | mass density (9.8 kPa): 0.34 ± 0.03 kg/m3 | mass density (12.4 kPa): 0.45 ± 0.03 kg/m3 | mass density (13.4 kPa): 0.5 ± 0.03 kg/m3 | mass density (14.5 kPa): 0.6 ± 0.03 kg/m3 | mass density (15.5 kPa): 0.63 ± 0.03 kg/m3 | mass density (16.5 kPa): 0.69 ± 0.03 kg/m3 | mass density (17.6 kPa): 0.76 ± 0.03 kg/m3 | mass density (19.6 kPa): 0.84 ± 0.03 kg/m3 | mass density (20.7 kPa): 0.88 ± 0.03 kg/m3 | mass density (21.7 kPa): 0.92 ± 0.03 kg/m3 | mass density (22.7 kPa): 1.01 ± 0.03 kg/m3 | mass density (23.9 kPa): 1.07 ± 0.03 kg/m3 | mass density (25.9 kPa): 1.13 ± 0.03 kg/m3 | mass density (26.9 kPa): 1.2 ± 0.03 kg/m3 | mass density (27.9 kPa): 1.24 ± 0.03 kg/m3 | mass density (29 kPa): 1.31 ± 0.03 kg/m3 | mass density (30 kPa): 1.37 ± 0.03 kg/m3 | mass density (31 kPa): 1.42 ± 0.03 kg/m3 | mass density (32 kPa): 1.45 ± 0.03 kg/m3 | mass density (33 kPa): 1.5 ± 0.03 kg/m3 | mass density (34 kPa): 1.62 ± 0.03 kg/m3 | mass density (35.1 kPa): 1.63 ± 0.03 kg/m3 | mass density (36.1 kPa): 1.72 ± 0.03 kg/m3 | mass density (39.1 kPa): 1.8 ± 0.03 kg/m3 | mass density (40.1 kPa): 1.85 ± 0.03 kg/m3 | mass density (41.2 kPa): 1.9 ± 0.03 kg/m3 | mass density (42.2 kPa): 1.99 ± 0.03 kg/m3 | mass density (45.3 kPa): 2.13 ± 0.03 kg/m3 | mass density (52.2 kPa): 2.54 ± 0.03 kg/m3 | mass density (58.8 kPa): 2.84 ± 0.03 kg/m3 | mass density (65.5 kPa): 3.31 ± 0.03 kg/m3 | mass density (72.2 kPa): 3.58 ± 0.03 kg/m3 | mass density (79 kPa): 3.91 ± 0.03 kg/m3 | mass density (85.8 kPa): 4.34 ± 0.03 kg/m3 | mass density (92.6 kPa): 4.61 ± 0.03 kg/m3 | mass density (99.4 kPa): 4.96 ± 0.03 kg/m3 | mass density (115.5 kPa): 5.84 ± 0.03 kg/m3 | mass density (124.6 kPa): 6.23 ± 0.03 kg/m3 | mass density (133.8 kPa): 6.76 ± 0.03 kg/m3 | mass density (142.9 kPa): 7.23 ± 0.03 kg/m3 | mass density (152 kPa): 7.73 ± 0.04 kg/m3 | mass density (161.1 kPa): 8.2 ± 0.04 kg/m3 | mass density (170.1 kPa): 8.69 ± 0.04 kg/m3 | mass density (179.2 kPa): 9.15 ± 0.04 kg/m3 | mass density (188.3 kPa): 9.64 ± 0.04 kg/m3 | mass density (197.2 kPa): 10.14 ± 0.04 kg/m3 | mass density (201.8 kPa): 10.33 ± 0.04 kg/m3 | mass density (215.2 kPa): 11.03 ± 0.04 kg/m3 | mass density (228.6 kPa): 11.76 ± 0.04 kg/m3 | mass density (241.9 kPa): 12.39 ± 0.04 kg/m3 | mass density (255.2 kPa): 13.18 ± 0.04 kg/m3 | mass density (268.5 kPa): 13.87 ± 0.04 kg/m3 | mass density (281.6 kPa): 14.57 ± 0.04 kg/m3 | mass density (295.2 kPa): 15.37 ± 0.04 kg/m3 | mass density (308.9 kPa): 16.07 ± 0.04 kg/m3 | mass density (323.1 kPa): 16.83 ± 0.04 kg/m3 | mass density (337.5 kPa): 17.58 ± 0.04 kg/m3 | mass density (352.1 kPa): 18.44 ± 0.04 kg/m3 | mass density (366.8 kPa): 19.21 ± 0.04 kg/m3 | mass density (381.5 kPa): 19.95 ± 0.04 kg/m3 | mass density (396.2 kPa): 20.78 ± 0.04 kg/m3 | mass density (411 kPa): 21.59 ± 0.04 kg/m3 | mass density (427.6 kPa): 22.57 ± 0.05 kg/m3 | mass density (444 kPa): 23.52 ± 0.05 kg/m3 | mass density (460.4 kPa): 24.33 ± 0.05 kg/m3 | mass density (476.7 kPa): 25.35 ± 0.05 kg/m3 | mass density (492.9 kPa): 26.26 ± 0.05 kg/m3 | mass density (509.2 kPa): 27.13 ± 0.05 kg/m3 | mass density (525.3 kPa): 28.12 ± 0.05 kg/m3 | mass density (541.5 kPa): 29.02 ± 0.05 kg/m3 | mass density (557.6 kPa): 29.96 ± 0.05 kg/m3 | mass density (575.1 kPa): 31 ± 0.05 kg/m3 | mass density (592.7 kPa): 31.99 ± 0.05 kg/m3 | mass density (610.1 kPa): 32.94 ± 0.06 kg/m3 | mass density (627.5 kPa): 34 ± 0.06 kg/m3 | mass density (645.1 kPa): 35.06 ± 0.06 kg/m3 | mass density (663.8 kPa): 36.18 ± 0.06 kg/m3 | mass density (682.3 kPa): 37.25 ± 0.06 kg/m3 | mass density (700.8 kPa): 38.41 ± 0.06 kg/m3 | mass density (719.1 kPa): 39.53 ± 0.06 kg/m3 | mass density (737.3 kPa): 40.62 ± 0.06 kg/m3 | mass density (755.2 kPa): 41.68 ± 0.07 kg/m3 | mass density (773.2 kPa): 42.77 ± 0.07 kg/m3 | mass density (791.1 kPa): 43.9 ± 0.07 kg/m3 | mass density (808.6 kPa): 44.92 ± 0.07 kg/m3 | mass density (843.9 kPa): 47.16 ± 0.07 kg/m3 | mass density (861.2 kPa): 48.3 ± 0.07 kg/m3 | mass density (878.4 kPa): 49.34 ± 0.08 kg/m3 | mass density (895.4 kPa): 50.38 ± 0.08 kg/m3 | mass density (912.3 kPa): 51.52 ± 0.08 kg/m3 | mass density (929.2 kPa): 52.65 ± 0.08 kg/m3 | mass density (945.9 kPa): 53.68 ± 0.08 kg/m3 | mass density (964.1 kPa): 54.95 ± 0.08 kg/m3 | mass density (981.4 kPa): 56.09 ± 0.08 kg/m3 | mass density (999 kPa): 57.2 ± 0.09 kg/m3 | mass density (1004 kPa): 57.55 ± 0.09 kg/m3 | mass density (1037.2 kPa): 59.89 ± 0.09 kg/m3 | mass density (1056.7 kPa): 61.12 ± 0.09 kg/m3 | mass density (1079.5 kPa): 62.72 ± 0.09 kg/m3 | mass density (1113.6 kPa): 65.06 ± 0.1 kg/m3 | mass density (1151.3 kPa): 67.79 ± 0.1 kg/m3 | mass density (1177.8 kPa): 69.69 ± 0.1 kg/m3 | mass density (1204.6 kPa): 71.61 ± 0.1 kg/m3 | mass density (1231.5 kPa): 73.4 ± 0.11 kg/m3 | mass density (1251 kPa): 74.95 ± 0.11 kg/m3 | mass density (1277.5 kPa): 76.93 ± 0.11 kg/m3 | mass density (1297.2 kPa): 78.23 ± 0.11 kg/m3 | mass density (1318.3 kPa): 79.8 ± 0.12 kg/m3 | mass density (1351 kPa): 82.19 ± 0.12 kg/m3 | mass density (1384.5 kPa): 84.6 ± 0.12 kg/m3 | mass density (1419.6 kPa): 87.38 ± 0.13 kg/m3 | mass density (1453.8 kPa): 89.96 ± 0.13 kg/m3 | mass density (1487.2 kPa): 92.64 ± 0.14 kg/m3 | mass density (1522.4 kPa): 95.5 ± 0.14 kg/m3 | mass density (1557 kPa): 98.35 ± 0.14 kg/m3 | mass density (1592 kPa): 101.11 ± 0.15 kg/m3 | mass density (1624.7 kPa): 103.88 ± 0.15 kg/m3 | mass density (1659.3 kPa): 106.85 ± 0.16 kg/m3 | mass density (1677.7 kPa): 108.37 ± 0.16 kg/m3 | mass density (1712.3 kPa): 111.38 ± 0.16 kg/m3 | mass density (1748.1 kPa): 114.59 ± 0.17 kg/m3 | mass density (1780.9 kPa): 117.54 ± 0.17 kg/m3 | mass density (1815.7 kPa): 120.8 ± 0.18 kg/m3 | mass density (1848.2 kPa): 123.82 ± 0.18 kg/m3 | mass density (1883.1 kPa): 127.18 ± 0.19 kg/m3 | mass density (1916.7 kPa): 130.47 ± 0.2 kg/m3
